In patent US20080114168A1, “Novel esters as useful broad spectrum herbicidal compounds” (priority 2004, published 2008):

Experiments:
[1] = test system: glufosinate-resistant corn; test: crop selectivity; type: in vivo; conditions: aqueous solution at 500-2000 ppm
[2] = test system: grasses; test: herbicidal activity against grasses, applied in aqueous solution; type: in vivo; conditions: applied in an aqueous solution at 500-2000 ppm
[3] = test system: broad leaved weeds; test: herbicidal activity against broad leaved weeds, applied in aqueous solution; type: in vivo; conditions: applied in an aqueous solution at 500-2000 ppm
[4] = general herbicidal character (selective or non-selective); conditions: in vivo

Row | SMILES | selectivity to crop [1] | herbicidal activity against grasses [2] | herbicidal activity against broad leaved weeds [3] | herbicide selectivity (general) [4]
1 | CP(=O)(O)CCC(N)C(=O)Oc1cc(Cl)nnc1-c1ccccc1 (racemic) [Example 1, 6-chloro-3-phenylpyridazin-4-yl 4-[hydroxyl(methyl)phosphinoyl]-DL-alaninate] | selective | active | active | –
2 | CP(=O)(O)CCC(N)C(=O)Oc1c(Cl)cnc(Cl)c1Cl (racemic) [Example 2] | – | active | active | powerful non-selective herbicide
